Literature values in patent US12029740B2 (NANOCOPOEIA, LLC, priority 2020, dated 2024).
Structures can show the parent of a compound that is named as a salt.

Key:
[1] = low/moderate aqueous solubility and low permeability

Row | Biopharmaceutical Classification System (BCS) class [1] | solubility with increasing pH | SMILES
1 | Class IV |  | Cc1cn(-c2cc(NC(=O)c3ccc(C)c(Nc4nccc(-c5cccnc5)n4)c3)cc(C(F)(F)F)c2)cn1 [Nilotinib monohydrochloride monohydrate]
2 |  | significantly decreases | Cc1cn(-c2cc(NC(=O)c3ccc(C)c(Nc4nccc(-c5cccnc5)n4)c3)cc(C(F)(F)F)c2)cn1 [nilotinib, 4-methyl-N-[3-(4-methyl-1H-imidazol-1-yl)-5-(trifluoromethyl)phenyl]-3-[[4-(3-pyridinyl)-2-pyrimidinyl]amino]-benzamide]
